The values below come from patent publication US9409952B2, “Peptide-compound cyclization method” (Chugai Seiyaku Kabushiki Kaisha, priority 2011, dated 2016).

Positions of bridges follow the written chain, without caps; N, C: chain ends. Non-standard residues stand in square brackets, D forms with d. Residues, ends and D or L forms follow the SMILES beside them. *: point of attachment. NMeF = CN[C@@H](Cc1ccccc1)C(=O)O; NMeI = CC[C@H](C)[C@H](NC)C(=O)O; 3Pal = N[C@@H](Cc1cccnc1)C(=O)O; NMeL = CN[C@@H](CC(C)C)C(=O)O; NMeV = CN[C@H](C(=O)O)C(C)C; NMeA = CN[C@@H](C)C(=O)O; Piperidide = C1CCN(*)CC1; dNMeA = CN[C@H](C)C(=O)O; Sar = CNCC(=O)O; tBu = CC(C)(C)*

Series [1] is described as follows: PAMPA (parallel artificial membrane permeability assay). The following applies: membrane permeation rate (Pe), 50 mM MOPSO buffer pH 6.5 with 5.0% glycocholic acid, 37° C., 18 hours; for Papp at 18 hours, 50 µM: PAMPA, read-out: iPAMPA Pe. It is filed as in vitro ADME. The procedure, abridged:
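Artificial membrane was 10% (w/v) egg lecithin plus 0.5% (w/v) cholesterol in dodecane on a PVDF filter. A 10 mM DMSO stock was added at 0.5% (v/v) to donor buffer (50 mM MOPSO, pH 6.5, 5.0% glycocholic acid). After 18 h at 37 °C, LC/MS or LC/UV gave donor and acceptor levels for Pe.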

Series [2] can be described thus: Metabolic stability in human hepatic microsome. It is filed as in vitro ADME. The following applies: microsomes, pH 7.4; human hepatic microsome, NADPH(+); read-out: CL NADPH(+).

With `CC[C@H](C)[C@@H]1NC(=O)[C@H](Cc2ccccc2)N(C)C(=O)[C@@H](C)NC(=O)C[C@@H](C(=O)N(C)[C@@H](CC(C)C)C(=O)NCC(=O)N(C)[C@@H](CC(C)C)C(=O)N[C@@H](C)C(=O)N2CCCCC2)NC(=O)[C@H](C(C)C)NC(=O)CN(C)C(=O)[C@H]([C@@H](C)O)NC1=O` [DP-568] ([dA][NMeF]IT[Sar]VD[NMeL]G[NMeL]A-Piperidide; lactam N-7), the Papp at 18 hours, 50 µM in series [1] was 4.4 ×10⁻⁶ cm/s. Also, the microsomal CLint at 1 uM in series [2] worked out at 30 µL/min/mg.

Take `CC[C@H](C)[C@@H]1NC(=O)[C@H](Cc2ccccc2)N(C)C(=O)[C@@H](C)NC(=O)C[C@@H](C(=O)N(C)[C@@H](Cc2ccccc2)C(=O)N(C)[C@@H](Cc2ccccc2)C(=O)N[C@@H](C)C(=O)N2CCCCC2)NC(=O)[C@H](C(C)C)NC(=O)CN(C)C(=O)[C@H]([C@@H](C)O)NC1=O` [DP-569] ([dA][NMeF]IT[Sar]VD[NMeF][NMeF]A-Piperidide; lactam N-7): in series [1], the Papp at 18 hours, 50 µM was found to be 21 ×10⁻⁶ cm/s. The microsomal CLint at 1 uM in series [2] came out at 203 µL/min/mg.

For `CC(C)C[C@H](NC(=O)CN(C)C(=O)[C@@H]1CC(=O)N[C@H](C)C(=O)N[C@@H](C(C)C)C(=O)N(C)[C@@H](Cc2ccccc2)C(=O)N(C)[C@@H](CC(C)C)C(=O)N(C)[C@@H](C)C(=O)N[C@@H]([C@@H](C)O)C(=O)N[C@@H](Cc2ccccc2)C(=O)N1)C(=O)N1CCCCC1` [DP-571] ([dA]V[NMeF][NMeL][NMeA]TFD[Sar]L-Piperidide; lactam N-8), the Papp at 18 hours, 50 µM in series [1] stood at 23 ×10⁻⁶ cm/s. The microsomal CLint at 1 uM in series [2] is 62 µL/min/mg.

`CC[C@H](C)[C@H](NC(=O)[C@H](Cc1ccccc1)N(C)C(=O)[C@@H]1CC(=O)N[C@@H](C)C(=O)N[C@@H](CC(C)C)C(=O)N(C)[C@@H]([C@@H](C)CC)C(=O)N[C@@H](C(C)C)C(=O)N(C)[C@@H](Cc2ccccc2)C(=O)N[C@@H](CC(C)C)C(=O)N(C)[C@@H](Cc2ccccc2)C(=O)N1)C(=O)N1CCCCC1` [DP-573] (AL[NMeI]V[NMeF]L[NMeF]D[NMeF]I-Piperidide; lactam N-8): in series [1], the “iPAMPA Pe” value turned out to be 1.0E−07. Besides, the microsomal CLint at 1 uM in series [2] was 72 µL/min/mg.

For the compound `CC(C)C[C@@H]1NC(=O)[C@H](C)NC(=O)C[C@@H](C(=O)N(C)[C@@H](C)C(=O)N[C@H](C(=O)N(C)[C@@H](Cc2ccccc2)C(=O)N(C)[C@@H](CC(C)C)C(=O)N[C@@H](C)C(=O)N2CCCCC2)[C@@H](C)O)NC(=O)[C@H](Cc2ccccc2)N(C)C(=O)[C@H](CC(C)C)N(C)C(=O)[C@H](C)NC(=O)[C@H](Cc2ccccc2)N(C)C(=O)[C@H](CC(C)C)N(C)C1=O` [DP-574] (AL[NMeL][NMeF]A[NMeL][NMeF]D[NMeA]T[NMeF][NMeL]A-Piperidide; lactam N-8), the Papp at 18 hours, 50 µM in series [1] was found to be 1.2 ×10⁻⁶ cm/s. Further, in series [2], the microsomal CLint at 1 uM was 113 µL/min/mg.

With `CC(C)C[C@@H](C(=O)N[C@@H](C)C(=O)N1CCCCC1)N(C)C(=O)[C@@H]1CC(=O)N[C@H](C(C)C)C(=O)N[C@@H]([C@@H](C)O)C(=O)N(C)[C@@H](C)C(=O)N(C)[C@@H](Cc2ccccc2)C(=O)N(C)[C@@H](Cc2ccccc2)C(=O)N[C@@H](COC(C)(C)C)C(=O)N(C)[C@@H](CC(C)C)C(=O)NCC(=O)N1` [DP-575] ([dV]T[NMeA][NMeF][NMeF]S(tBu)[NMeL]GD[NMeL]A-Piperidide; lactam N-9), the Papp at 18 hours, 50 µM in series [1] was determined as 28 ×10⁻⁶ cm/s. Also, the microsomal CLint at 1 uM in series [2] was 70 µL/min/mg.

For `CC[C@H](C)[C@H](NC(=O)[C@H](CC(C)C)N(C)C(=O)CN(C)C(=O)[C@@H]1CC(=O)N[C@H](C(C)C)C(=O)N[C@@H](C)C(=O)N[C@@H]([C@@H](C)O)C(=O)N(C)[C@@H](C)C(=O)N[C@@H](Cc2ccccc2)C(=O)N(C)[C@@H](CC(C)C)C(=O)N(C)[C@@H](Cc2ccccc2)C(=O)N(C)[C@@H](CC(C)C)C(=O)N1)C(=O)N1CCCCC1` [DP-576] ([dV]AT[NMeA]F[NMeL][NMeF][NMeL]D[Sar][NMeL]I-Piperidide; lactam N-9), the Papp at 18 hours, 50 µM in series [1] was determined as 15 ×10⁻⁶ cm/s. Further, the microsomal CLint at 1 uM in series [2] was 17 µL/min/mg.

In the case of `CC(C)C[C@H](NC(=O)[C@@H](NC(=O)[C@@H]1CCCN1C(=O)[C@@H]1CC(=O)N[C@H](C)C(=O)N(C)[C@@H](C)C(=O)N(C)[C@@H](Cc2ccccc2)C(=O)N(C)[C@@H](CC(C)C)C(=O)N[C@@H]([C@@H](C)O)C(=O)N(C)CC(=O)N(C)[C@@H](CC(C)C)C(=O)N[C@@H](COC(C)(C)C)C(=O)N(C)[C@@H](CC(C)C)C(=O)N1)C(C)C)C(=O)N1CCCCC1` [DP-579] ([dA][NMeA][NMeF][NMeL]T[Sar][NMeL]S(tBu)[NMeL]DPVL-Piperidide; lactam N-10), the Papp at 18 hours, 50 µM in series [1] worked out at 24 ×10⁻⁶ cm/s. For the same compound, in series [2], the microsomal CLint at 1 uM turned out to be 19 µL/min/mg.

On to `CC[C@H](C)[C@@H]1NC(=O)[C@H](Cc2ccccc2)N(C)C(=O)[C@H](CC(C)C)NC(=O)[C@H](CC(C)C)NC(=O)[C@H](Cc2ccccc2)NC(=O)[C@H](CC(C)C)NC(=O)[C@@H](C)NC(=O)C[C@@H](C(=O)N(C)[C@@H](C)C(=O)N[C@@H](CC(C)C)C(=O)N[C@@H](C)C(=O)N[C@H](C(=O)N2CCCCC2)[C@@H](C)CC)NC(=O)[C@H](Cc2ccccc2)NC(=O)[C@H]([C@@H](C)O)NC1=O` [DP-580] ([dA]LFLL[NMeF]ITFD[NMeA]LAI-Piperidide; lactam N-10), for which the Papp at 18 hours, 50 µM in series [1] was 0.13 ×10⁻⁶ cm/s. The microsomal CLint at 1 uM in series [2] is 54 µL/min/mg.

For the compound `CC[C@H](C)[C@@H]1NC(=O)[C@H](CC(C)C)N(C)C(=O)CN(C)C(=O)[C@H](Cc2ccccc2)NC(=O)[C@H](C(C)C)N(C)C(=O)[C@H](C)N(C)C(=O)[C@H]([C@@H](C)O)NC(=O)[C@H](C)N(C)C(=O)C[C@@H](C(=O)N(C)[C@@H](CC(C)C)C(=O)N[C@H](C(=O)N(C)[C@@H](CC(C)C)C(=O)N[C@@H](C)C(=O)N2CCCCC2)[C@@H](C)O)NC(=O)[C@H](C)NC1=O` [DP-581] ([NMeA]T[NMeA][NMeV]F[Sar][NMeL]IAD[NMeL]T[NMeL]A-Piperidide; lactam N-10), the Papp at 18 hours, 50 µM in series [1] came to 2.7 ×10⁻⁶ cm/s. For the same compound, the microsomal CLint at 1 uM in series [2] was determined as 7 µL/min/mg.

`CC(C)C[C@@H](C(=O)N[C@@H](C)C(=O)N1CCCCC1)N(C)C(=O)[C@H](C)N(C)C(=O)[C@@H]1CC(=O)N[C@H](C(C)C)C(=O)N(C)[C@@H](C)C(=O)N(C)[C@@H](CC(C)C)C(=O)N(C)[C@@H](CC(C)C)C(=O)N(C)CC(=O)N(C)[C@@H](Cc2ccccc2)C(=O)N[C@@H](C)C(=O)N(C)[C@@H](Cc2ccccc2)C(=O)N(C)[C@@H](CC(C)C)C(=O)N[C@@H]([C@@H](C)O)C(=O)N1` [DP-582] ([dV][NMeA][NMeL][NMeL][Sar][NMeF]A[NMeF][NMeL]TD[NMeA][NMeL]A-Piperidide; lactam N-11): the Papp at 18 hours, 50 µM in series [1] came to 21 ×10⁻⁶ cm/s. The microsomal CLint at 1 uM in series [2] was 12 µL/min/mg.

Consider `CC[C@H](C)[C@@H](C(=O)N[C@@H](Cc1ccccc1)C(=O)N1CCCCC1)N(C)C(=O)[C@@H]1CC(=O)N(C)[C@H](C)C(=O)N(C)[C@@H](CC(C)C)C(=O)N[C@@H](Cc2ccccc2)C(=O)N[C@@H]([C@@H](C)O)C(=O)N(C)CC(=O)N(C)[C@@H](C)C(=O)N(C)[C@@H](C(C)C)C(=O)N[C@@H](C)C(=O)N(C)[C@@H](CC(C)C)C(=O)N[C@@H](CC(C)C)C(=O)N1` [DP-583] ([dNMeA][NMeL]FT[Sar][NMeA][NMeV]A[NMeL]LD[NMeI]F-Piperidide; lactam N-11), for which the Papp at 18 hours, 50 µM in series [1] worked out at 25 ×10⁻⁶ cm/s. Moreover, the microsomal CLint at 1 uM in series [2] amounted to 27 µL/min/mg.

As to `CC[C@H](C)[C@H](NC(=O)[C@H](C)N(C)C(=O)[C@@H]1CC(=O)N[C@H](C(C)C)C(=O)N(C)[C@@H](C)C(=O)N(C)[C@@H](CC(C)C)C(=O)N(C)[C@@H](CC(C)C)C(=O)N(C)CC(=O)N(C)[C@@H](Cc2ccccc2)C(=O)N[C@@H](C)C(=O)N(C)[C@@H](Cc2ccccc2)C(=O)N(C)[C@@H](CC(C)C)C(=O)N[C@@H]([C@@H](C)O)C(=O)N1)C(=O)N1CCCCC1` [DP-584] ([dV][NMeA][NMeL][NMeL][Sar][NMeF]A[NMeF][NMeL]TD[NMeA]I-Piperidide; lactam N-11), the Papp at 18 hours, 50 µM in series [1] came to 18 ×10⁻⁶ cm/s. In addition, the microsomal CLint at 1 uM in series [2] was found to be 20 µL/min/mg.

As for `CC(C)C[C@H]1C(=O)N[C@@H](C(C)C)C(=O)N(C)[C@@H](CC(C)C)C(=O)N(C)[C@@H](CC(C)C)C(=O)N[C@H](C(=O)N(C)[C@@H](Cc2ccccc2)C(=O)N[C@@H](C)C(=O)N2CCCCC2)CC(=O)N[C@H](C(C)C)C(=O)N(C)[C@@H](CC(C)C)C(=O)N(C)[C@@H](Cc2ccccc2)C(=O)N(C)[C@@H](CC(C)C)C(=O)N[C@@H](Cc2c[nH]cn2)C(=O)N1C` [DP-586] ([dV][NMeL][NMeF][NMeL]H[NMeL]V[NMeL][NMeL]D[NMeF]A-Piperidide; lactam N-10), in series [1], the Papp at 18 hours, 50 µM amounted to 0.44 ×10⁻⁶ cm/s. Moreover, the microsomal CLint at 1 uM in series [2] is 15 µL/min/mg.

Take `CC(C)C[C@H]1C(=O)N(C)[C@@H](CC(C)C)C(=O)N[C@H](C(=O)N(C)[C@@H](Cc2ccccc2)C(=O)N[C@@H](C)C(=O)N2CCCCC2)CC(=O)N[C@H](C(C)C)C(=O)N(C)[C@@H](C)C(=O)N(C)[C@@H](Cc2ccccc2)C(=O)N(C)[C@@H](CC(C)C)C(=O)N[C@@H](Cc2cccnc2)C(=O)N(C)CC(=O)N[C@@H](C)C(=O)N1C` [DP-591] ([dV][NMeA][NMeF][NMeL][3Pal][Sar]A[NMeL][NMeL]D[NMeF]A-Piperidide; lactam N-10): in series [1], the Papp at 18 hours, 50 µM came to 26 ×10⁻⁶ cm/s. Further, the microsomal CLint at 1 uM in series [2] stood at 15 µL/min/mg.

Take `CC(C)C[C@@H]1NC(=O)[C@H](Cc2c[nH]cn2)NC(=O)[C@H](Cc2ccccc2)N(C)C(=O)[C@H](CC(C)C)NC(=O)[C@H](CC(C)C)N(C)C(=O)[C@H](Cc2ccccc2)NC(=O)[C@H](CC(C)C)N(C)C(=O)[C@H](CC(C)C)N(C)C(=O)[C@H](Cc2ccccc2)NC(=O)CN(C)C(=O)C[C@@H](C(=O)N(C)[C@@H](Cc2ccccc2)C(=O)N[C@@H](C)C(=O)N2CCCCC2)NC1=O` [DP-592] ([Sar]F[NMeL][NMeL]F[NMeL]L[NMeF]HLD[NMeF]A-Piperidide; lactam N-11): in series [1], the Papp at 18 hours, 50 µM was 0.18 ×10⁻⁶ cm/s. Also, the microsomal CLint at 1 uM in series [2] was 5 µL/min/mg.
